Source: ChEMBL document CHEMBL5321234, “Discovery of Thieno[3,2-d]pyrimidine derivatives as potent and selective inhibitors of ataxia telangiectasia mutated and Rad3 related (ATR) kinase” (Eur J Med Chem, 2023)
pIC50: −log10 of the molar value.

Legend:
[1] = biological target: Serine/threonine-protein kinase ATR (Homo sapiens, UniProt Q13535); test: Inhibition of ATR (unknown origin)
[2] = test system: LoVo; test: Antiproliferative activity against human LoVo cells incubated for 72 hrs by CCK-8 assay; format: functional, cell-based
[3] = Oral bioavailability in ICR mouse at 10 mg/kg measured upto 24 hrs by LC-MS/MS analysis; format: ADME, organism-based; settings: in vivo
[4] = Tmax in ICR mouse at 1 mg/kg, iv measured upto 24 hrs by LC-MS/MS analysis; format: ADME, organism-based; settings: in vivo
[5] = MRT (0 to infinity) in ICR mouse at 10 mg/kg, po measured upto 24 hrs by LC-MS/MS analysis; format: ADME, organism-based; settings: in vivo
[6] = AUC (0 to infinity) in ICR mouse at 10 mg/kg, po measured upto 24 hrs by LC-MS/MS analysis; format: ADME, organism-based; parameters: dose 10 mg/kg, time < 24 hrs, route po; settings: in vivo
[7] = Tmax in ICR mouse at 10 mg/kg, po measured upto 24 hrs by LC-MS/MS analysis; format: ADME, organism-based; settings: in vivo
[8] = Clearance in ICR mouse at 1 mg/kg, iv measured upto 24 hrs by LC-MS/MS analysis; format: ADME, organism-based; settings: ICR, in vivo
[9] = AUC (0 to infinity) in ICR mouse at 1 mg/kg, iv measured upto 24 hrs by LC-MS/MS analysis; format: ADME, organism-based; parameters: dose 1 mg/kg, time < 24 hrs, route iv; settings: in vivo
[10] = Volume of distribution at steady state in ICR mouse at 1 mg/kg, iv measured upto 24 hrs by LC-MS/MS analysis; format: ADME, organism-based; settings: ICR, in vivo, read-out: Vdss
[11] = Initial plasma concentration in ICR mouse at 1 mg/kg, iv measured upto 24 hrs by LC-MS/MS analysis; format: ADME, organism-based
[12] = Half life in ICR mouse at 10 mg/kg, po measured upto 24 hrs by LC-MS/MS analysis; format: ADME, organism-based; settings: in vivo
[13] = Half life in ICR mouse at 1 mg/kg, iv measured upto 24 hrs by LC-MS/MS analysis; format: ADME, organism-based; settings: in vivo
[14] = Cmax in ICR mouse at 1 mg/kg, iv measured upto 24 hrs by LC-MS/MS analysis; format: ADME, organism-based; parameters: time < 24 hrs, dose 1 mg/kg, route iv; settings: in vivo
[15] = Cmax in ICR mouse at 10 mg/kg, po measured upto 24 hrs by LC-MS/MS analysis; format: ADME, organism-based; parameters: time < 24 hrs, dose 10 mg/kg, route po; settings: in vivo
[16] = MRT (0 to infinity) in ICR mouse at 1 mg/kg, iv measured upto 24 hrs by LC-MS/MS analysis; format: ADME, organism-based; settings: ICR, in vivo
[17] = MRT (0 to t) in ICR mouse at 1 mg/kg, iv measured upto 24 hrs by LC-MS/MS analysis; format: ADME, organism-based; settings: in vivo
[18] = AUC (0 to t) in ICR mouse at 10 mg/kg, po measured upto 24 hrs by LC-MS/MS analysis; format: ADME, organism-based; parameters: dose 10 mg/kg, time < 24 hrs, route po; settings: in vivo
[19] = MRT (0 to t) in ICR mouse at 10 mg/kg, po measured upto 24 hrs by LC-MS/MS analysis; format: ADME, organism-based; settings: in vivo
[20] = AUC (0 to t) in ICR mouse at 1 mg/kg, iv measured upto 24 hrs by LC-MS/MS analysis; format: ADME, organism-based; parameters: dose 1 mg/kg, time < 24 hrs, route iv; settings: in vivo
[21] = test system: LoVo; test: Antitumor activity against human LoVo cells xenografted in BALB/c mouse assessed as tumor growth inhibition at 50 mg/kg, po bid 3 days on/4 days off administered for 21 consecutive days relative to control; format: functional; settings: 504 h, time 21 day, read-out: TGI
[22] = test system: HT-29; test: Antiproliferative activity against human HT-29 cells incubated for 72 hrs by CCK-8 assay; format: functional, cell-based; settings: HT-29, 72 h

Serine/threonine-protein kinase ATR, sequence (Q13535 whole entry): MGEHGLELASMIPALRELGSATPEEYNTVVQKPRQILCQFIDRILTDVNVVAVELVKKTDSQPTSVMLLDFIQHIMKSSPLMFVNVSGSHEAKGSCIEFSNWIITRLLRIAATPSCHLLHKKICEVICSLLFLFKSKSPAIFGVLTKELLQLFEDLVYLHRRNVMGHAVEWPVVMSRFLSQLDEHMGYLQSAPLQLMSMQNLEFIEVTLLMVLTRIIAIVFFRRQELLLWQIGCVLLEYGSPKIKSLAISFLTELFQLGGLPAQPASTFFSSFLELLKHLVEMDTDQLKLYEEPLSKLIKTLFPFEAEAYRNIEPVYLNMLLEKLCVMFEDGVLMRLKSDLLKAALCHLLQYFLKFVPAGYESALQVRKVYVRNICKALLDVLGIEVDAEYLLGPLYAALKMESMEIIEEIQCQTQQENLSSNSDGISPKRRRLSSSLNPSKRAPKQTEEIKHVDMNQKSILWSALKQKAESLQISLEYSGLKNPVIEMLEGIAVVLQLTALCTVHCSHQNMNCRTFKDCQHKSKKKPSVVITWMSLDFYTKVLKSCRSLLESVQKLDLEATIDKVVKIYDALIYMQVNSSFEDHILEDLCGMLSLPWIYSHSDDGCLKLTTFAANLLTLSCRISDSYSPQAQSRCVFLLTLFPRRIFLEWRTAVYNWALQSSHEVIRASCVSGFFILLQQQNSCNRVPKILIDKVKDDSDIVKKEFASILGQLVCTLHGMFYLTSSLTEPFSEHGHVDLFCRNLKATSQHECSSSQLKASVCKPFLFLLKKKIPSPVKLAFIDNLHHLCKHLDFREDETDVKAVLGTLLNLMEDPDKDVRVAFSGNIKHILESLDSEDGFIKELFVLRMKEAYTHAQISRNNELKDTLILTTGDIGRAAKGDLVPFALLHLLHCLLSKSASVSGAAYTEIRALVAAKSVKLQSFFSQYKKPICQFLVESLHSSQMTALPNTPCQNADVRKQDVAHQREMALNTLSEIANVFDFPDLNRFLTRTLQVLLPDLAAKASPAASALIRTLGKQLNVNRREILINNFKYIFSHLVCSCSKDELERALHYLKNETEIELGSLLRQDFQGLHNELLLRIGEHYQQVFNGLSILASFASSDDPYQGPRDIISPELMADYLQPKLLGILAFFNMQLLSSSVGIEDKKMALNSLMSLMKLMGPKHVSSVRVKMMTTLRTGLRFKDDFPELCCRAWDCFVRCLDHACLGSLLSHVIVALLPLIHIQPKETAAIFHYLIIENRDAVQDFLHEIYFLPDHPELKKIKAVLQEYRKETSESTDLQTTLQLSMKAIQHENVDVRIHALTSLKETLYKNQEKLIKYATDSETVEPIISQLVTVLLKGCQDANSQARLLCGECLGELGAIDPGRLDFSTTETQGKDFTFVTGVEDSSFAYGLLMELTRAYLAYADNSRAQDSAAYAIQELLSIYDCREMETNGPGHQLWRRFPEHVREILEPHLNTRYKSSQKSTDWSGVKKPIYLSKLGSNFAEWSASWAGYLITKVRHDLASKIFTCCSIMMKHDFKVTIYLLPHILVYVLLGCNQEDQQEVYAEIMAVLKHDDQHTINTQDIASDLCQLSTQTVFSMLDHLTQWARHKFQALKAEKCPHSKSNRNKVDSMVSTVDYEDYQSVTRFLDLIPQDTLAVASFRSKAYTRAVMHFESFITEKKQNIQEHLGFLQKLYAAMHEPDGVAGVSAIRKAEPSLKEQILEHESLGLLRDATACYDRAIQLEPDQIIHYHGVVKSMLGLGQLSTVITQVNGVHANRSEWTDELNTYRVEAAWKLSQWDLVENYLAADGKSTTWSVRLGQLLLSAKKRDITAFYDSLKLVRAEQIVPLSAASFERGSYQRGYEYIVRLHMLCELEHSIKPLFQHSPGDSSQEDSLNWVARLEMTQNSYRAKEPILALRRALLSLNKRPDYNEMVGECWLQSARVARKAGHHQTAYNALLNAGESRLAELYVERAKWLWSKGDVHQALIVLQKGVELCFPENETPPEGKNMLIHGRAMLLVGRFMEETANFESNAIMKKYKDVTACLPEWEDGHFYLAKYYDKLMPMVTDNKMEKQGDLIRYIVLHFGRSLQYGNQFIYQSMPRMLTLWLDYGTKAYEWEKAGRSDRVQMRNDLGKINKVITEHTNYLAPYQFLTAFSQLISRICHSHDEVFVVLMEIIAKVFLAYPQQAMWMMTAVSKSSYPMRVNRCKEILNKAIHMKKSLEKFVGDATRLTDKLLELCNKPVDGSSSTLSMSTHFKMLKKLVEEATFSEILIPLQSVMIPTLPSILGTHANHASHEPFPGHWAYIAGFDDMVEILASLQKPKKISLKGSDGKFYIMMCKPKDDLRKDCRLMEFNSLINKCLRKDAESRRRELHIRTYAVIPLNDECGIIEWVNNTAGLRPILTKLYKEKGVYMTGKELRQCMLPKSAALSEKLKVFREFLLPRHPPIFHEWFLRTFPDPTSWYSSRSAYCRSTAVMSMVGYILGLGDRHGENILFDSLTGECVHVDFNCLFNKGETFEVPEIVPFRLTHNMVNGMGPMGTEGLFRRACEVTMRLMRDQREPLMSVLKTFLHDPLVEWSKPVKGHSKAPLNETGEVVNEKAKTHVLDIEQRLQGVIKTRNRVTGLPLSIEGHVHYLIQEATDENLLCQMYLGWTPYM

Compound	pIC50 [1]	pIC50 [2]	other results
CC(=O)Nc1nc2ccccc2n1-c1nc(N2CCOC[C@H]2C)c2scc(S(C)(=O)=O)c2n1	7.88	6.90	
C[C@@H]1COCCN1c1nc(-c2ccnc3[nH]ccc23)nc2ccsc12	7.75	5.48	
C[C@@H]1COCCN1c1nc(-n2c(N)nc3c(F)cccc32)nc2c(S(C)(=O)=O)csc12	8.70	6.42	
C=C(C)c1csc2c(N3CCOC[C@H]3C)nc(-c3ccnc4[nH]ccc34)nc12	6.96		
CC(O)c1csc2c(N3CCOC[C@H]3C)nc(-c3ccnc4[nH]ccc34)nc12 (stereo partly specified)	7.72	6.16	
C[C@@H]1COCCN1c1nc(-c2cc(F)cc3[nH]ccc23)nc2c(S(C)(=O)=O)csc12	8.51	6.59	
C[C@@H]1COCCN1c1nc(-n2c(C(F)F)nc3ccccc32)nc2c(S(C)(=O)=O)csc12	8.55	6.75	
C[C@@H]1COCCN1c1nc(-c2c[nH]c3ccccc23)nc2c(S(C)(=O)=O)csc12	8.30	6.36	
CNc1nc2ccccc2n1-c1nc(N2CCOC[C@H]2C)c2scc(SC)c2n1	7.62	5.83	
CNc1nc2ccccc2n1-c1nc(N2CCOC[C@H]2C)c2scc([S+](C)[O-])c2n1 (stereo partly specified)	8.07	6.58	
CCS(=O)(=O)c1csc2c(N3CCOC[C@H]3C)nc(-n3c(NC)nc4ccccc43)nc12	8.35	7.05	
C[C@@H]1COCCN1c1nc(-c2cc(C(F)(F)F)cc3[nH]ccc23)nc2c(S(C)(=O)=O)csc12	8.54	6.28	
C[C@@H]1COCCN1c1nc(-c2ccnc3[nH]ccc23)nc2c(C(C)(C)O)csc12	8.10	6.66	
C[C@@H]1COCCN1c1nc(-c2c(F)ncc3[nH]ccc23)nc2c(S(C)(=O)=O)csc12	8.33	6.82	
C[C@@H]1COCCN1c1nc(-n2c(N)nc3ccccc32)nc2c(S(C)(=O)=O)csc12	9.00	7.19	bioavailability [3]: 32.8%; Tmax [4]: 4.8 min; MRT inf [5]: 1.09 h; AUC(0-inf) [6]: 741 ng·h/mL; Tmax [7]: 15 min; clearance [8]: 74.9 mL/min/kg; AUC(0-inf) [9]: 226 ng·h/mL; Vd [10]: 0.827 L/kg; C0 at 24 h [11]: 1080 ng/mL; half-life [12]: 74.4 min; half-life [13]: 7.8 min; Cmax [14]: 698 ng/mL; Cmax [15]: 994 ng/mL; MRT inf [16]: 10.8 min; MRT last at 24 h [17]: 9.6 min; AUC(0-t) at 24 h [18]: 735 ng·h/mL; MRT last at 24 h [19]: 1.03 h; AUC(0-t) at 24 h [20]: 221 ng·h/mL
C[C@@H]1COCCN1c1nc(-n2cnc3ccccc32)nc2c(S(C)(=O)=O)csc12	8.64	6.19	
C[C@@H]1COCCN1c1nc(-c2cccc3[nH]ccc23)nc2c(S(C)(=O)=O)csc12	8.51	6.58	
CCCS(=O)(=O)c1csc2c(N3CCOC[C@H]3C)nc(-n3c(NC)nc4ccccc43)nc12	7.77	6.20	
CSc1nc2ccccc2n1-c1nc(N2CCOC[C@H]2C)c2scc(S(C)(=O)=O)c2n1	6.95		
C[C@@H]1COCCN1c1nc(-n2c(=O)[nH]c3ccccc32)nc2c(S(C)(=O)=O)csc12	6.91	< 5.00	
Cc1nc2ccccc2n1-c1nc(N2CCOC[C@H]2C)c2scc(S(C)(=O)=O)c2n1	8.46	6.20	

Compound	pIC50 [1]	pIC50 [2]	other results
C[C@@H]1COCCN1c1nc(-c2ccnc3[nH]ccc23)nc2c(S(C)(=O)=O)csc12	8.24	6.95	
C[C@@H]1COCCN1c1nc(-c2ccnc3[nH]ccc23)nc2c(S(C)(=N)=O)csc12 (stereo partly specified)	8.27	6.40	
C[C@@H]1COCCN1c1cc(-c2ccnn2C)c2ccnc(-c3ccn[nH]3)c2n1 [ELIMUSERTIB]		7.39	inhibition in vivo at 50 mg/kg [21]: 65%
C[C@@H]1COCCN1c1nc(-c2ccnc3[nH]ccc23)nc2c(C#N)csc12	7.28	5.60	
CNc1nc2ccccc2n1-c1nc(N2CCOC[C@H]2C)c2scc(P(C)(C)=O)c2n1	8.21	6.95	
C[C@@H]1COCCN1c1nc(-n2c(N(C)C)nc3ccccc32)nc2c(S(C)(=O)=O)csc12	6.63		
C[C@@H]1COCCN1c1nc(-n2c(N)nc3ccc(F)cc32)nc2c(S(C)(=O)=O)csc12	8.43	6.44	
C[C@@H]1COCCN1c1nc(-c2ccnc3[nH]ccc23)nc2c(C(N)=O)csc12	7.50	6.43	
CC(C)n1c(=O)n(C)c2cnc3cc(F)c(-c4ccc(OCCCN5CCCCC5)nc4)cc3c21 [AZD-1390]			pIC50 [22]: < 5.00
CNc1nc2ccccc2n1-c1nc(N2CCOC[C@H]2C)c2scc(S(=O)(=O)C3CC3)c2n1	8.55	6.97	
CCc1nc2ccccc2n1-c1nc(N2CCOC[C@H]2C)c2scc(S(C)(=O)=O)c2n1	8.42	6.18	
CC(=O)c1csc2c(N3CCOC[C@H]3C)nc(-c3ccnc4[nH]ccc34)nc12	7.45	6.03	
C[C@@H]1COCCN1c1nc(-c2cccc3c2CCN3)nc2c(S(C)(=O)=O)csc12	7.23	5.72	
CNc1nc2ccccc2n1-c1nc(N2CCOC[C@H]2C)c2scc(S(C)(=N)=O)c2n1 (stereo partly specified)	8.26	6.93	
C[C@@H]1COCCN1c1nc(-n2nnc3ccccc32)nc2c(S(C)(=O)=O)csc12	7.33		
C[C@@H]1COCCN1c1nc(-c2cc(Cl)cc3[nH]ccc23)nc2c(S(C)(=O)=O)csc12	8.44	6.92	
CNc1nc2ccccc2n1-c1nc(N2CCOC[C@H]2C)c2scc(S(=O)(=O)C(C)C)c2n1	8.24	6.65	
C[C@@H]1COCCN1c1nc(-c2cccc3c2CC(=O)N3)nc2c(S(C)(=O)=O)csc12	6.80		
C[C@@H]1COCCN1c1nc(-n2c(N)nc3cc(F)ccc32)nc2c(S(C)(=O)=O)csc12	8.92	7.14	
CCP(=O)(CC)c1csc2c(N3CCOC[C@H]3C)nc(-n3c(NC)nc4ccccc43)nc12	8.21	6.43	
C[C@@H]1COCCN1c1nc(-c2cccc3[nH]ncc23)nc2c(S(C)(=O)=O)csc12	8.02	6.41	
